Assay results taken from patent US20180155344A1, “TRICYCLIC PIPERIDINE COMPOUNDS” (ACTELION PHARMACEUTICALS LTD, priority 2015, published 2018).
Read-outs that look alike come from different tables or passages of the source.

Target: T1, human TPH1 (Homo sapiens, UniProt P17752)
T1 sequence (P17752 1-444): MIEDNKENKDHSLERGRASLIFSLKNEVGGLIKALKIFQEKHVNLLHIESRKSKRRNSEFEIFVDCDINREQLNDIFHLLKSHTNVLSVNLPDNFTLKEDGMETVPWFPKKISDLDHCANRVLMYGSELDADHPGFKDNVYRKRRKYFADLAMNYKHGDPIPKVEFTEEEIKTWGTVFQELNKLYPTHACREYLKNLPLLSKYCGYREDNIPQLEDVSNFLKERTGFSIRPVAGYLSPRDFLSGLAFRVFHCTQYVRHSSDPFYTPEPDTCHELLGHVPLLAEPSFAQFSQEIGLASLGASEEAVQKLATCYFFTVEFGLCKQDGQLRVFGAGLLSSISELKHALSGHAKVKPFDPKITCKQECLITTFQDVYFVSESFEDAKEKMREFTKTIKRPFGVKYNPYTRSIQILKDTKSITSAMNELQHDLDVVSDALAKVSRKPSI
Assay: biochemical
Procedure, shortened: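 Inhibition is derived from 5-hydroxy-L-tryptophan fluorescence (540 nm emission, 300 nm excitation) after perchloric acid stop, relative to DMSO vehicle. Recombinant full-length human enzyme (40-80 nM) reacts with 40 μM tryptophan plus 100 μM methyltetrahydropterin, pH 7.6 Tris/DTT/catalase, 15° C, 60 min.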

SMILES | IC50 [nM] | IC50 (Table 1, full length human TPH1, 40 μM L-tryptophan, 15° C., 60 minutes, mean if determined several times) [nM]
Cc1ccc(OCC(=O)N2CCc3nc4cc(C(F)(F)F)ccn4c3C2c2cccnc2F)cc1 (centres unmarked) [Example 3.2.3, 1-(1-(2-fluoropyridin-3-yl)-7-(trifluoromethyl)-3,4-dihydroimidazo[1,2-a:5,4-c′]dipyridin-2(1H)-yl)-2-(p-tolyloxy)ethan-1-one] | 251 | 
COc1ccc(C2c3c(nc4cc(C(F)(F)F)ccn34)CCN2C(=O)COc2ccc3ccccc3c2)c(F)c1 (centres unmarked) [Example 3.3.1, 1-(1-(2-fluoro-4-methoxyphenyl)-7-(trifluoromethyl)-3,4-dihydroimidazo[1,2-a:5,4-c′]dipyridin-2(1H)-yl)-2-(naphthalen-2-yloxy)ethan-1-one] | 5 | 
COc1ccc(C2c3c(nc4cc(C(F)(F)F)ccn34)CCN2C(=O)COc2ccc(CN3CCOCC3)cc2Cl)c(F)c1 (centres unmarked) [Example 3.3.2, 2-(2-chloro-4-(morpholinomethyl)phenoxy)-1-(1-(2-fluoro-4-methoxyphenyl)-7-(trifluoromethyl)-3,4-dihydroimidazo[1,2-a:5,4-c′]dipyridin-2(1H)-yl)ethan-1-one] | 7 | 
COc1ccc(C2c3c(nc4cc(C(F)(F)F)ccn34)CCN2C(=O)COc2ccc(CN3CCOCC3)c(C)c2C)c(F)c1 (centres unmarked) [Example 3.3.3, 2-(2,3-dimethyl-4-(morpholinomethyl)phenoxy)-1-(1-(2-fluoro-4-methoxyphenyl)-7-(trifluoromethyl)-3,4-dihydroimidazo[1,2-a:5,4-c′]dipyridin-2(1H)-yl)ethan-1-one] | 8 | 
COc1ccc(C2c3c(nc4cc(C(F)(F)F)ccn34)CCN2C(=O)COc2ccc3c(c2C)CCN(C(=O)OC(C)(C)C)C3)c(F)c1 (centres unmarked) [Example 3.3.4, tert-butyl 6-(2-(1-(2-fluoro-4-methoxyphenyl)-7-(trifluoromethyl)-3,4-dihydroimidazo[1,2-a:5,4-c′]dipyridin-2(1H)-yl)-2-oxoethoxy)-5-methyl-3,4-dihydroisoquinoline-2(1H)-carboxylate] | 178 | 
COc1ccc(C2c3c(nc4cc(C(F)(F)F)ccn34)CCN2C(=O)COc2ccc3c(c2C)CCNC3)c(F)c1 (centres unmarked) [Example 3.3.5, 1-(1-(2-fluoro-4-methoxyphenyl)-7-(trifluoromethyl)-3,4-dihydroimidazo[1,2-a:5,4-c′]dipyridin-2(1H)-yl)-2-((5-methyl-1,2,3,4-tetrahydroisoquinolin-6-yl)oxy)ethan-1-one] | 217 | 
COc1ccc(C2c3c(nc4cc(C(F)(F)F)ccn34)CCN2C(=O)COc2ccc3c(c2C)CCN(C(C)=O)C3)c(F)c1 (centres unmarked) [Example 3.3.6, 2-((2-acetyl-5-methyl-1,2,3,4-tetrahydroisoquinolin-6-yl)oxy)-1-(1-(2-fluoro-4-methoxyphenyl)-7-(trifluoromethyl)-3,4-dihydroimidazo[1,2-a:5,4-c′]dipyridin-2(1H)-yl)ethan-1-one] | 11 | 
COc1ccc(C2c3c(nc4cc(C(F)(F)F)ccn34)CCN2C(=O)COc2ccc3c(c2C)CCN(C)C3)c(F)c1 (centres unmarked) [Example 3.3.7, 2-((2,5-dimethyl-1,2,3,4-tetrahydroisoquinolin-6-yl)oxy)-1-(1-(2-fluoro-4-methoxyphenyl)-7-(trifluoromethyl)-3,4-dihydroimidazo[1,2-a:5,4-c′]dipyridin-2(1H)-yl)ethan-1-one] | 117 | 
O=C(COc1cccnc1Cl)N1CCc2nc3cc(C(F)(F)F)ccn3c2C1c1ccc(Cl)cc1F (centres unmarked) [Example 3.4.1, 1-(1-(4-chloro-2-fluorophenyl)-7-(trifluoromethyl)-3,4-dihydroimidazo[1,2-a:5,4-c′]dipyridin-2(1H)-yl)-2-((2-chloropyridin-3-yl)oxy)ethan-1-one] | 44 | 
O=C(COc1ccc(CN2CCOCC2)cc1Cl)N1CCc2nc3cc(C(F)(F)F)ccn3c2C1c1ccc(Cl)cc1F (centres unmarked) [Example 3.4.2, 1-(1-(4-chloro-2-fluorophenyl)-7-(trifluoromethyl)-3,4-dihydroimidazo[1,2-a:5,4-c′]dipyridin-2(1H)-yl)-2-(2-chloro-4-(morpholinomethyl)phenoxy)ethan-1-one] | 7 | 
Cn1nc(OCC(=O)N2CCc3nc4cc(C(F)(F)F)ccn4c3C2c2ccc(Cl)cc2F)c(Cl)c1C(F)(F)F (centres unmarked) [Example 3.4.3, 2-((4-chloro-1-methyl-5-(trifluoromethyl)-1H-pyrazol-3-yl)oxy)-1-(1-(4-chloro-2-fluorophenyl)-7-(trifluoromethyl)-3,4-dihydroimidazo[1,2-a:5,4-c′]dipyridin-2(1H)-yl)ethan-1-one] | 64 | 
CCc1nc(C)ccc1OCC(=O)N1CCc2nc3cc(C(F)(F)F)ccn3c2C1c1ccc(Cl)cc1F (centres unmarked) [Example 3.4.4, 1-(1-(4-chloro-2-fluorophenyl)-7-(trifluoromethyl)-3,4-dihydroimidazo[1,2-a:5,4-c′]dipyridin-2(1H)-yl)-2-((2-ethyl-6-methylpyridin-3-yl)oxy)ethan-1-one] | 21 | 
O=C(COc1ccc(N2CCOCC2)cc1Cl)N1CCc2nc3cc(C(F)(F)F)ccn3c2[C@H]1c1ccc(Cl)cc1F [Example 3.4.5, ((1R)-1-(4-chloro-2-fluorophenyl)-7-(trifluoromethyl)-3,10a-dihydroimidazo[1,2-a:5,4-c′]dipyridin-2(1H)-yl)-2-(2-chloro-4-morpholinophenoxy)ethan-1-one] |  | 6
O=C(COc1ccc(N2CCOCC2)nc1Cl)N1CCc2nc3cc(C(F)(F)F)ccn3c2C1c1ccc(Cl)cc1F (centres unmarked) [Example 3.4.6, 1-(1-(4-chloro-2-fluorophenyl)-7-(trifluoromethyl)-3,4-dihydroimidazo[1,2-a:5,4-c′]dipyridin-2(1H)-yl)-2-((2-chloro-6-morpholinopyridin-3-yl)oxy)ethan-1-one] | 5 | 
CS(=O)(=O)Nc1ccc(OCC(=O)N2CCc3nc4cc(C(F)(F)F)ccn4c3C2c2ccc(Cl)cc2F)c(Cl)n1 (centres unmarked) [Example 3.4.7, N-(6-chloro-5-(2-(1-(4-chloro-2-fluorophenyl)-7-(trifluoromethyl)-3,4-dihydroimidazo[1,2-a:5,4-c′]dipyridin-2(1H)-yl)-2-oxoethoxy)pyridin-2-yl)methanesulfonamide] | 5 | 
CCc1nc(C)ccc1OCC(=O)N1CCc2nc3cc(C(F)(F)F)ccn3c2C1c1ccc(C2CC2)cc1F (centres unmarked) [Example 3.5.1, 1-(1-(4-cyclopropyl-2-fluorophenyl)-7-(trifluoromethyl)-3,4-dihydroimidazo[1,2-a:5,4-c′]dipyridin-2(1H)-yl)-2-((2-ethyl-6-methylpyridin-3-yl)oxy)ethan-1-one] | 11 | 
O=C(COc1ccc(N2CCOCC2)cc1Cl)N1CCc2nc3cc(C(F)(F)F)ccn3c2C1c1ccc(C2CC2)cc1F (centres unmarked) [Example 3.5.2, 2-(2-chloro-4-morpholinophenoxy)-1-(1-(4-cyclopropyl-2-fluorophenyl)-7-(trifluoromethyl)-3,4-dihydroimidazo[1,2-a:5,4-c′]dipyridin-2(1H)-yl)ethan-1-one] | 6 | 
CCc1c(OCC(=O)N2CCc3nc4cc(C(F)(F)F)ccn4c3C2c2ccc(C3CC3)cc2F)ccc(C)[n+]1[O-] (centres unmarked) [Example 3.5.3, 1-(1-(4-cyclopropyl-2-fluorophenyl)-7-(trifluoromethyl)-3,4-dihydroimidazo[1,2-a:5,4-c′]dipyridin-2(1H)-yl)-2-((2-ethyl-6-methyl-1-(I1-oxidanyl)-1I4-pyridin-3-yl)oxy)ethan-1-one] | 85 | 
O=C(COc1ccc[n+]([O-])c1Cl)N1CCc2nc3cc(C(F)(F)F)ccn3c2C1c1ccc(C2CC2)cc1F (centres unmarked) [Example 3.5.4, 2-((2-chloro-1-(I1-oxidanyl)-1I4-pyridin-3-yl)oxy)-1-(1-(4-cyclopropyl-2-fluorophenyl)-7-(trifluoromethyl)-3,4-dihydroimidazo[1,2-a:5,4-c′]dipyridin-2(1H)-yl)ethan-1-one] | 210 | 
COc1ccc(C2c3c(nc4cc(C(F)(F)F)ccn34)CCN2C(=O)COc2ccc3ccccc3c2)cn1 (centres unmarked) [Example 3.6.1, 1-(1-(6-methoxypyridin-3-yl)-7-(trifluoromethyl)-3,4-dihydroimidazo[1,2-a:5,4-c′]dipyridin-2(1H)-yl)-2-(naphthalen-2-yloxy)ethan-1-one] | 52 | 
COc1ccc(C2c3c(nc4cc(C(F)(F)F)ccn34)CCN2C(=O)COc2ccc(CN3CCOCC3)cc2Cl)cn1 (centres unmarked) [Example 3.6.2, 2-(2-chloro-4-(morpholinomethyl)phenoxy)-1-(1-(6-methoxypyridin-3-yl)-7-(trifluoromethyl)-3,4-dihydroimidazo[1,2-a:5,4-c′]dipyridin-2(1H)-yl)ethan-1-one] | 50 | 
CCOc1ccc(C2c3c(nc4cc(C(F)(F)F)ccn34)CCN2C(=O)COc2ccc(CN3CCOCC3)cc2Cl)cn1 (centres unmarked) [Example 3.7.1, 2-(2-chloro-4-(morpholinomethyl)phenoxy)-1-(1-(6-ethoxypyridin-3-yl)-7-(trifluoromethyl)-3,4-dihydroimidazo[1,2-a:5,4-c′]dipyridin-2(1H)-yl)ethan-1-one] | 18 | 
O=C(COc1ccc(CN2CCOCC2)cc1Cl)N1CCc2nc3cc(C(F)(F)F)ccn3c2C1c1ccc(OCC(F)(F)F)nc1 (centres unmarked) [Example 3.8.1, 2-(2-chloro-4-(morpholinomethyl)phenoxy)-1-(1-(6-(2,2,2-trifluoroethoxy)pyridin-3-yl)-7-(trifluoromethyl)-3,4-dihydroimidazo[1,2-a:5,4-c′]dipyridin-2(1H)-yl)ethan-1-one] | 86 | 
